Target: T1, Dimer of Gag-Pol polyprotein [501-599,Q508K,L534I,L564I,C568A,C596A] (Human immunodeficiency virus 1, UniProt P03367, C568A/C596A/L534I/L564I/Q508K)
T1 construct: 501-599
Experiment: Protease Inhibition Assay
Details: pH 6.4; 25 °C
Description: The Ki values were determined using fluorogenic substrate, 2-(aminobenzoyl)-Thr-Ile-Nle-Phe(p-NO2)-Gln-ArgNH2. A standard curve relating changes in fluorescent intensity to changes in concentration of product was used to convert fluorescent changes into molar velocities. The amount of cleavage was determined by HPLC.

In the case of `O=C(N[C@H]1c2ccccc2C[C@H]1O)[C@H](Cc1ccccc1)C[C@H](O)CN1C(=O)[C@H](Cc2ccccc2)C[C@@H]1Cc1ccccc1` [(2R,4S)-2-benzyl-5-[(3R,5R)-3,5-dibenzyl-2-oxopyrrolidin-1-yl]-4-hydroxy-N-[(1S,2R)-2-hydroxy-2,3-dihydro-1H-inden-1-yl]pentanamide], the Ki is reported as > 500 pM.

From BindingDB's records for doi:10.1016/s0960-894x(00)00163-3 (Glaxosmithkline, 2000)
